Test results reported in ChEMBL document CHEMBL5375968, “Peptide TK-HR from the Skin of Chinese Folk Medicine Frog Hoplobatrachus Rugulosus Accelerates Wound Healing via the Activation of the Neurokinin-1 Receptor” (J Med Chem, 2023).
Blank lines part the entries; values can stand above or below the molecule they belong to. Activity calls are given as the source filed them. No cut-off for these calls is given here. Residues, ends and D or L forms follow the SMILES beside them.

Tests used:
Neutrophil [1] = test: Induction of chemotaxis in BALB/c mouse neutrophils assessed as increase in ratio of cell polarization at 100 nM measured for 15 mins by Zigmond-chamber based microscopy (reference value: 14.6 %); type: functional; conditions: 0.25 h
Neutrophil [2] = test: Induction of ROS production in BALB/c mouse neutrophils at 100 nM incubated for 2 hrs by DCFH-DA staining based analysis; type: functional, cell-based
HaCaT [3] = test: Drug uptake in human HaCaT cells incubated for 30 mins by flow cytometry; type: functional, cell-based; conditions: dose 5-20 µM
[4] = Drug uptake in mouse RAW264.7 cells by flow cytometry; type: ADME, cell-based; conditions: dose 2.5-40 µM
[5] = Drug uptake in Aprepitant-treated mouse RAW264.7 cells at 20 uM incubated for 30 mins by flow cytometry; type: ADME, cell-based; conditions: raw264.7, 0.5 h
[6] = Drug uptake in Aprepitant-treated HUVEC cells at 5 to 20 uM incubated for 30 mins by flow cytometry; type: ADME, cell-based; conditions: human, 0.5 h, dose 5-20 µM
[7] = Drug uptake in Aprepitant-treated BALB/c mouse neutrophils at 20 uM incubated for 30 mins by flow cytometry; type: ADME, cell-based; conditions: neutrophil, 0.5 h
HaCaT [8] = test: Drug uptake in Aprepitant-treated human HaCaT cells 5 to 20 uM incubated for 30 mins by flow cytometry; type: functional, cell-based; conditions: dose 5-20 µM
[9] = Drug uptake in HUVEC cells incubated for 30 mins by flow cytometry; type: ADME, cell-based; conditions: human, 0.5 h, dose 5-20 µM
[10] = Drug uptake in BALB/c mouse neutrophils by flow cytometry; type: ADME, cell-based; conditions: neutrophil, dose 2.5-40 µM

Compound: CSCC[C@H](NC=O)C(=O)N[C@@H](CC(C)C)C(=O)N[C@@H](Cc1ccccc1)C(=O)O
- Activity (Neutrophil [1]): 56.3%

Compound: CCCCCCCCCCCCCC(=O)O[C@@H]1[C@@H](C)[C@]2(O)[C@@H](C=C(CO)C[C@]3(O)C(=O)C(C)=C[C@@H]23)[C@@H]2C(C)(C)[C@]12OC(C)=O
- Activity (Neutrophil [2]): Active

- Drug uptake [4]: Dose-Dependent Effect
- Drug uptake [5]: Not Active
- Drug uptake [6]: Not Active
- Drug uptake [7]: Not Active
- Drug uptake [9]: Dose-Dependent Effect
- Drug uptake [10]: Dose-Dependent Effect
Compound: CSCC[C@H](NC(=O)[C@H](CC(C)C)NC(=O)CNC(=O)[C@H](Cc1ccc(O)cc1)NC(=O)[C@H](Cc1ccccc1)NC(=O)[C@H](CCCNC(=N)N)NC(=O)[C@H](CC(=O)O)NC(=O)[C@@H]1CCCN1C(=O)[C@H](CC(N)=O)NC(=O)[C@@H]1CCCN1C(=O)[C@H](CCCCN)NC(=S)Nc1ccc(-c2c3ccc(=O)cc-3oc3cc(O)ccc23)c(C(=O)O)c1)C(N)=O (HELM PEPTIDE1{[O=C(O)c1cc(NC(=S)[*:2])ccc1-c1c2ccc(=O)cc-2oc2cc(O)ccc12].K.P.N.P.D.R.F.Y.G.L.M.[am]}$$$$V2.0)
- Drug uptake (HaCaT [3]): Dose-Dependent Effect
- Drug uptake (HaCaT [8]): inactive
